From patent US9034891B2, “Bicyclic heterocyclic spiro compounds” (ISRAEL INSTITUTE FOR BIOLOGICAL RESEARCH, priority 2009, dated 2015)
Entries after “also recorded” stand apart in the source; their conditions may differ. Read-outs that look alike come from different tables or passages of the source.

Legend:
[1] = biological target: T1, M1 mAChR (Homo sapiens, UniProt P11229); experiment: High-throughput profiling, binding at 10 μM; parameters: expressed in transfected cells
T1 sequence (P11229 1-460): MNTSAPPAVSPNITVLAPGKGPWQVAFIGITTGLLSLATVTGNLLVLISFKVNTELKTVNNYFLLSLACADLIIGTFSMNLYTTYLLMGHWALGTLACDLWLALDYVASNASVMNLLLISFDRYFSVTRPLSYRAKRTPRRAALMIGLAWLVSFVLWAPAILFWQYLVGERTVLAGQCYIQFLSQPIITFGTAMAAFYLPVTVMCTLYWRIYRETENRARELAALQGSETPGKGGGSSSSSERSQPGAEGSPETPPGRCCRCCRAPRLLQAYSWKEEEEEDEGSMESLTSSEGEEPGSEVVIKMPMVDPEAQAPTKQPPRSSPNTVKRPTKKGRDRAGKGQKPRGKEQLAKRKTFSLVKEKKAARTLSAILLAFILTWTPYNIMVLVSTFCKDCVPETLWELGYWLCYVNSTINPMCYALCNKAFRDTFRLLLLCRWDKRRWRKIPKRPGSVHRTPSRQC
Excerpt: (§1) It was specifically designed to provide information not only on potential limitations of drug candidates, but also for off-target activity identification. […] In a further extension of this study, functional studies were done on most of these receptors.

[2] = biological target: T1, M1 mAChR
[3] = biological target: Histamine 2 Receptor (Homo sapiens, UniProt P25021); experiment: Functional study, agonist or antagonist
Histamine 2 Receptor, sequence (P25021 whole entry): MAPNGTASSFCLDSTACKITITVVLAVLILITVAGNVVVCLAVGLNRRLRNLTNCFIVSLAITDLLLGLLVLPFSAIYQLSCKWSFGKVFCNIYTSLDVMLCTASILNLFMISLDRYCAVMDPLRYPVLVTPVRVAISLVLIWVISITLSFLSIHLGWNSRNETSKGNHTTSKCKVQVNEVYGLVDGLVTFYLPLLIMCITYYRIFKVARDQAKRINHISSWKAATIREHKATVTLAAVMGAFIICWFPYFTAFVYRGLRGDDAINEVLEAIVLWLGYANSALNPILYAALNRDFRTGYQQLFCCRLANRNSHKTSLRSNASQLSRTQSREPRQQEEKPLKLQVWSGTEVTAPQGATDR
Excerpt: as §1

[4] = biological target: 5HT2C Receptor (Homo sapiens, UniProt P28335); experiment: Functional study, agonist or antagonist
5HT2C Receptor, sequence (P28335 33-458): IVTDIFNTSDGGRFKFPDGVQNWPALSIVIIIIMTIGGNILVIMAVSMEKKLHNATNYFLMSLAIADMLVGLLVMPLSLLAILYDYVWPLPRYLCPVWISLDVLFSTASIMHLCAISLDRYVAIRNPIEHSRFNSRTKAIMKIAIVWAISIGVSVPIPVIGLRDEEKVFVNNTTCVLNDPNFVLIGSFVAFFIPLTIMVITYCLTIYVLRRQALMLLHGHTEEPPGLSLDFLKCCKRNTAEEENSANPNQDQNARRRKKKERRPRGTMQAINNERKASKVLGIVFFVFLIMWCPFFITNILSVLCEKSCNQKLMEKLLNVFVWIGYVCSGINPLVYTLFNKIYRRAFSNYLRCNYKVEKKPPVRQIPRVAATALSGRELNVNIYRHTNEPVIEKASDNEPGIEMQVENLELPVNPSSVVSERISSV
Excerpt: as §1

[5] = biological target: 5HT2A receptor (Homo sapiens, UniProt P28223); experiment: Functional study, agonist or antagonist
5HT2A receptor, sequence (P28223 whole entry): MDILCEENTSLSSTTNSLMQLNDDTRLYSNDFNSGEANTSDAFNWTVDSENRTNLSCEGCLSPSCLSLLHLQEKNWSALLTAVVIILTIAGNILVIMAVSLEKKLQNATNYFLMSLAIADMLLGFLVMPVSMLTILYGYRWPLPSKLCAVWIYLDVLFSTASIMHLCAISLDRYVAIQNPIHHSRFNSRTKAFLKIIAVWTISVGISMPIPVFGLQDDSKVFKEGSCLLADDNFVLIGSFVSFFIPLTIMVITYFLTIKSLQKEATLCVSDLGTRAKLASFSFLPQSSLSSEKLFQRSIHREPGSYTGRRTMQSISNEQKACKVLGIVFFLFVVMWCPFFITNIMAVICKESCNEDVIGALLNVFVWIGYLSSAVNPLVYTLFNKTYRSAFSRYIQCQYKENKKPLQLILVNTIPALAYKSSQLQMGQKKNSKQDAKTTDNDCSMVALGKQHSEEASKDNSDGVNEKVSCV
Excerpt: as §1

[6] = biological target: T2, sigma 1 receptors (Cavia porcellus, UniProt Q60492); experiment: Displacement of tritiated-pentazocine from guinea-pig cerebral cortex; assay type: binding
T2 construct: displacement assay of tritiated-pentazocine from guinea-pig cerebral cortex; from tissue; host or cells: guinea-pig cerebral cortex
T2 sequence (Q60492 whole entry): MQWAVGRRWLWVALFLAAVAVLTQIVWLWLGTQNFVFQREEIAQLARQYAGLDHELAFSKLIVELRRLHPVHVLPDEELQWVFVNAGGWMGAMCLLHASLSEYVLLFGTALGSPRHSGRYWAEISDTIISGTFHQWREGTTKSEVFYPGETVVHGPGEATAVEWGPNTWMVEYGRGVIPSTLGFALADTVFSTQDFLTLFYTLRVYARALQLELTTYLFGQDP
Excerpt: as §1

[7] = biological target: α7 nicotinic receptor (Homo sapiens, UniProt P36544); experiment: Binding to α7 nicotinic receptor; details: 0.1 nM-10 μM
α7 nicotinic receptor, sequence (P36544 23-502): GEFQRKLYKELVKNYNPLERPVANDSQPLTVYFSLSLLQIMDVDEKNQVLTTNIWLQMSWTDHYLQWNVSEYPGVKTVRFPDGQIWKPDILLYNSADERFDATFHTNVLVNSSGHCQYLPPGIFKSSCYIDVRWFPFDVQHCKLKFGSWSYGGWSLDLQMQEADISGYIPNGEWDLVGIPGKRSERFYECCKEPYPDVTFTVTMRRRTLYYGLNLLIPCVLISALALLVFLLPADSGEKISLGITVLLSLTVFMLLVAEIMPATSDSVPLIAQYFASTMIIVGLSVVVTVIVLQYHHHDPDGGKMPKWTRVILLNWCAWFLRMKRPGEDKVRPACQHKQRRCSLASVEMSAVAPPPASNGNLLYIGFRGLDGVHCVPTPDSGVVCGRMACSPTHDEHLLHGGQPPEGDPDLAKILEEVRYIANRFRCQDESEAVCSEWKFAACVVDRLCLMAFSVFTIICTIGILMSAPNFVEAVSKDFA
Excerpt: as §1

[8] = tested on: M2-M5 mAChR subtypes; experiment: Intracellular Ca2+ mobilization in cells stably transfected with M2-M5 mAChR subtypes; assay type: cell-based
Excerpt: To evaluate selectivity for a subtype of mAChR, in particular the M1 mAChR vs. M3 and MS mAChR, the assays were calibrated using ligands that have a combined activity, e.g. M1 agonistic and M3 antagonistic or M1 agonistic and MS antagonistic profiles, respectively. This can eliminate effects due to different receptor reserves in cell-based assays.

[9] = biological target: α-4β2 nicotinic receptor (Homo sapiens, UniProt P17787+P43681); experiment: Binding to α4β2 nicotinic receptor; details: 0.1 nM-10 μM
α-4β2 nicotinic receptor, sequence (P43681 29-627 limits assumed): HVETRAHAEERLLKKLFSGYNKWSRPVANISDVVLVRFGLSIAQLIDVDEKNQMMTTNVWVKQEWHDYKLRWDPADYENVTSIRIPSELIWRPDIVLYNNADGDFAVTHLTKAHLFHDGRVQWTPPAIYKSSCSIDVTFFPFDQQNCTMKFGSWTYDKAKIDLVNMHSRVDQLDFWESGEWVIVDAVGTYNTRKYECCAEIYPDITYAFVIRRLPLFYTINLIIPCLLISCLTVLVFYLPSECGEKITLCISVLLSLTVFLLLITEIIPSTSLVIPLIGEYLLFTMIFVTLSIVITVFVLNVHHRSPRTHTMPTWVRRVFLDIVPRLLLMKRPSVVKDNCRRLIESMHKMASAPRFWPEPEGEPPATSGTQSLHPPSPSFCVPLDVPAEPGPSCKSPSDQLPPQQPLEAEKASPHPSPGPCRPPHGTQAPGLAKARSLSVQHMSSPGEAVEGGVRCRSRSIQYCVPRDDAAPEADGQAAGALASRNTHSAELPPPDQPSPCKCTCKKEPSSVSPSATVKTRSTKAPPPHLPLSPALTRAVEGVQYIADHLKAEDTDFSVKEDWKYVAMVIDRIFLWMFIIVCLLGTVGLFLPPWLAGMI
α-4β2 nicotinic receptor, sequence (P17787 26-502): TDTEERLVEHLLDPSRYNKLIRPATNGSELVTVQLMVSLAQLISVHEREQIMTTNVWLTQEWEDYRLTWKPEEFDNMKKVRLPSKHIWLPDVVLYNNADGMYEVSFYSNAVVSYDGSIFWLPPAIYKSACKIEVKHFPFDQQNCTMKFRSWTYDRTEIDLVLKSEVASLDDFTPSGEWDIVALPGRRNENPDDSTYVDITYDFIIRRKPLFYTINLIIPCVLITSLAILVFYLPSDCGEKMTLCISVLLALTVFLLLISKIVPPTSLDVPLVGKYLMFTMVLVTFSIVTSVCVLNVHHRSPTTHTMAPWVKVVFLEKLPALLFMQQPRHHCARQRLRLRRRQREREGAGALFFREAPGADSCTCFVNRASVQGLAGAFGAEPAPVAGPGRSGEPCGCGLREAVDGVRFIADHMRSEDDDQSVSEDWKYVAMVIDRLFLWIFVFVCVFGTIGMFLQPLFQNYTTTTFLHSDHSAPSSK
Excerpt: as §1

[10] = biological target: T3, rat M1 mAChR (Rattus norvegicus, UniProt P08482); experiment: αAPPs secretion in PC12 cells stably transfected with rat M1 mAChR; assay type: cell-based; details: 0.1 nM to 1 μM, not observed in untransfected PC12
T3 construct: expressed in transfected cells; host or cells: rat pheochromocytoma PC12 cells
T3 sequence (P08482 whole entry): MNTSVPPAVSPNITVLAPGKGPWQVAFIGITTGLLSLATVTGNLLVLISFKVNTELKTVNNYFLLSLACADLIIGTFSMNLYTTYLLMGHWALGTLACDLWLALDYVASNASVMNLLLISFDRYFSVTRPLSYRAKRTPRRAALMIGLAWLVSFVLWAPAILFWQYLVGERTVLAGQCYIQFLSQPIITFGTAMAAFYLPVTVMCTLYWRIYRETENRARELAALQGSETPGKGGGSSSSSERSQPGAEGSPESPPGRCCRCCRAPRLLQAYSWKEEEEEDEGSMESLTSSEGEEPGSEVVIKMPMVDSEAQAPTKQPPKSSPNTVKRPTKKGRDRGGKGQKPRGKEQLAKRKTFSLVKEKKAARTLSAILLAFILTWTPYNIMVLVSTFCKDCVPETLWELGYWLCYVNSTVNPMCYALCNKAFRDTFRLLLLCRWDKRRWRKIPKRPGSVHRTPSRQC
Method: α-APPs Secretion studies following incubation with the tested compounds were performed as described in Haring, et al. J. Neurochem., 1998, 71:2094-103. […] A day later, cells were washed twice with serum free media, and treated with the test compound at various concentrations ranging from 0.1 nM to 100 μM. […] After 1 hour the conditioned medium was collected to cold Eppendorf tubes, which included a protease inhibitor cocktail (0.1 mM phenylmethylsulphonyl fluoride (PMSF); 5 μg/ml leupeptin; 5 μg/ml pepstatin and 5 units/ml aprotinin) for determining αAPPs release. The protein content of each sample was concentrated using Centricon tubes (Amicon, Beverly, Mass.). […] CHO cells double transfected with human APP695 and M1 mAChR APPs bands were probed using anti-amyloid beta protein (1:1000, monoclonal 6E10 antibody, MAB1560, Chemicon) and peroxidase-linked rabbit anti mouse IgG (1:5,000; Jackson Immuno Research, PA). PC12 cells stably transfected with M1 mAChR APPs bands were probed using the anti-Alzheimer precursor protein A4 (1:4,000; monoclonal 22C11 antibody, Boehringer Mannheim) and the peroxidase-linked rabbit anti mouse IgG (1:20,000; Jackson Immuno Research, PA). […] Quantitative determination of the total APPs bands was performed by Scion Image program (NIH, Bethesda, USA). […]

[11] = tested on: PC12 cells; experiment: Mitochondrial apoptosis pathway, Bax and Bcl-2 immunoreactivity in PC12 cells; assay type: cell-based, rat
Method: These cells were partially differentiated (2-3 days), as observed under microscope. […] The pellet (rich mitochondrial fraction) was re-suspended with 200 μl Ripa buffer and lysed by rapid passage through a syringe needle (23G) for five to six times. The lysate was then used for further evaluation.
Bands were probed using the Rabbit Bax antibody (1:1000, Cell signaling, Cat. No. 2772) and Rabbit Bcl-2 antibody (1:1000, Cell signaling, Cat. No. 2870) followed by anti rabbit IgG (H&L) HRP (1:5,000, Jackson Immuno Research, 111-035-144).

[12] = tested on: Wistar rats; experiment: Passive avoidance, trihexyphenidyl-induced memory impairment in rats; assay type: in vivo, rat
Excerpt: Trihexyphenidyl is a selective M1 muscarinic antagonist that crosses the blood brain barrier and induces memory and learning impairments (Bymaster et al., J Pharmacol Exp. Ther. 267: 16-24, 1993; Roldan et al., Neurosci. Lett. 230: 93-96, 1997; Kimura et al., Brain Res. 834: 6-12, 1999). […] Naive Wistar rats were used in the experiments below. The passive avoidance (PA) task consists of a training (acquisition) phase and a retention phase. In the training procedure each rat was individually placed in the small illuminated compartment and after 60 s. of familiarization/adaptation, the door to the large compartment was opened and the latency to enter was measured (Initial Latency) Immediately following entry into the dark compartment, the door was closed and inescapable foot shock (0.6 mA for 3 s) was delivered through the grid floor. […] After the acquisition trial the rat was returned to its home cage. Retention of the passive avoidance task was measured 24 h later, by again placing the rat in the light compartment and after a 60 s adaptation interval, the door was opened and the latency to re-enter the dark compartment was measured. […] Two separate experiments were conducted. […] In both experiments the rats were divided into 2 groups. One main group was treated with trihexyphenidyl (5 mg/kg, s.c) and the second main group was treated with vehicle (DDW-1 ml/kg, s.c.), 30 min before the shock.
In a further extension of these studies, retention of the passive avoidance task was measured 72 h later, by again placing the rat in the light compartment and after a 60 s adaptation interval, the door was opened and the latency to re-enter the dark compartment was measured. A cutoff point of 600 s was used for retention latency. […] Rats were divided into 2 groups. One group (N=30) was treated with trihexyphenidyl (5 mg/kg, s.c) and the second group (N=29) was treated with vehicle (DDW-1 ml/kg, s.c.), 30 min before the shock.

C[C@@H]1SC2(CCN(C)CC2)CN1C(=O)CCc1c[nH]c2ccccc12 (single isomer, unassigned) [AF710B]
binding to M1 mAChR [1]: binds | effect of brucine pre-incubation on elevation of intracellular calcium ions [2]: no such effect; also recorded: slight inhibition | agonist or antagonist activity on histamine 2 receptor [3]: inactive | agonist or antagonist activity on 5HT2C receptor [4]: inactive | agonist or antagonist activity on 5HT2A receptor [5]: inactive | Ki ([6]; read-out: sigma 1 receptors KH): 1.4 nM | Ki ([6]; read-out: sigma 1 receptors KL): 248 nM | binding to α7 nicotinic receptor [7]: does not bind | agonistic activity on the M2-M5 mAChR subtypes [8]: did not show detectable agonistic activity | binding to α-4β2 nicotinic receptor [9]: does not bind | release of αAPPs [10]: enhanced the release of αAPPs | Bax elevation after NGF deprivation [11]: attenuated Bax elevation | Emax at 0.01 µM ([11]; Rattus norvegicus, PC-12, 10 nM, read-out: Aβ 25-35 induced neurotoxicity expressed as Bax/Bcl2, maximum effect): 35% | retention latency ([12]; 1 μg/kg po, 72 h, cutoff 600 s, trihexyphenidyl+DDW 98.6±28.0, control 568.7±23.7): 276.3 ± 60.7 s | retention latency ([12]; 10 μg/kg po, 72 h, cutoff 600 s): 272.7 ± 51.6 s | retention latency ([12]; AF710B 10 μg/kg with NE-100 1 mg/kg): 185.4 ± 44.0 s | retention latency ([12]; Experiment 1, 10 μg/kg po, 24 h, cutoff 300 s, trihexyphenidyl+DDW 54.22±14.60, control 242.00±30.60): 252.50 ± 32.30 s | retention latency ([12]; Experiment 1, 30 μg/kg po, 24 h, cutoff 300 s): 178.82 ± 32.70 s | retention latency ([12]; Experiment 1, 100 μg/kg po, 24 h, not different from trihexyphenidyl+DDW): 122.00 ± 34.60 s | retention latency ([12]; Experiment 2, 1 μg/kg po, 24 h, trihexyphenidyl+DDW 63.89±18.79, control 274.70±20.8): 215.6 ± 36.00 s | retention latency ([12]; Experiment 2, 3 μg/kg po, 24 h): 219.80 ± 36.00 s | retention latency ([12]; NE-100 experiment, AF710B 10 μg/kg, trihexyphenidyl+DDW 122.0±29.2, control 525.7±51.0): 361.7 ± 67.1 s | cognitive enhancer dose range ([12]; po, trihexyphenidyl-induced passive avoidance impairment): 1 to 30 µg/kg
